According to patent US12339285B2, “Method for estimating therapeutic efficacy” (Konica Minolta, Inc., priority 2017, dated 2025):
Read-outs that look alike come from different tables or passages of the source.

Tested on: tumor tissue of lung cancer patients transplanted in SCID mice
Description: Further, tumor tissue was collected from each of the patients at the same time when drug administration was started, and a 2 mm-square piece of the tumor tissue was transplanted under the skin of SCID (Severe Combined ImminoDeficiency) mice (5 mice transplanted with tumor tissue derived from each patient were produced, and a total of 20 mice were produced). […] After 1 day and 100 days from the administration, tumor tissue was collected from the mice, and sample slides were prepared in the same manner as in Preparation for evaluation-1.

Structure (SMILES): COc1cc2ncnc(Nc3ccc(F)c(Cl)c3)c2cc1OCCCN1CCOCC1 [Gefitinib]
- resistance in PDX mice (PDX mice of the patient B or D (so in the source), judged from tumor volume): resistance was not developed
- volume of tumor (PDX mice transplanted with tumor tissue of patient F or H (drug resistant on day 100)): once reduced on day 100 after drug administration, but was increased thereafter
- resistance to Gefitinib in PDX mice (PDX mice transplanted with tumor tissue of patient F or H, judged from tumor volume): resistance to Gefitinib was developed
- volume of tumor (PDX mice transplanted with tumor tissue of the patient B or D (so in the source) with no drug resistance on day 100): gradually reduced
